Results taken from a melting point compilation (Tetko et al.; mined from patent text by program, amines drawn as free bases though some values may be those of a salt).

Row | melting point [°C] | SMILES
1 | 187 to 189 | O=C1c2ccccc2C(=O)N1Nc1ccc(/C=C/C(c2cc(Cl)c(Cl)c(Cl)c2)C(F)(F)F)cc1 (stereo not drawn)
2 | 158 to 161 | O=C(c1ccccc1)c1cc(Cl)cc2c1S(=O)(=O)CC2C(=O)O (stereo not drawn)
3 | 153 to 154 | CC1(C)O[C@H]2CC(O)=C(O)C(=O)[C@H]2O1
4 | 68 | CCOC(Cn1nc(CC(=O)OC)c2ccccc2c1=O)OCC
5 | 154 to 155 | O=c1ccn(CCOCc2ccccc2)c(C(O)c2ccccc2)c1OCc1ccccc1 (stereo not drawn)
6 | 144 to 146 | CC(C)(C)OC(=O)Nc1cc(N2CCC(OCCOC3CCCCO3)CC2)c(-c2ccc(F)cc2)cc1[N+](=O)[O-] (racemic)
7 | 205 to 207 | COc1ccc(C2C3=C(COC3=O)Nc3ccc4cc(C)[nH]c4c32)c(F)c1 (stereo not drawn)
8 | 215 to 216 | Cn1c(=O)c(Oc2c(F)cccc2F)cc2cnc(S(C)(=O)=O)nc21
9 | 84 | CCCc1c(OCC(O)COc2ccc(CC(=O)O)cc2Br)ccc(C(C)=O)c1O (stereo not drawn)
10 | 133 to 135 | CCc1ccc(Nc2nnc(Cc3ccnc(O)c3)c3ccccc23)cc1Br
11 | 242 to 243 | COc1nc2cccnc2n(-c2ccc(Cl)cc2)c1=O
12 | 112 to 115 | COc1ccc(NC(=O)[C@H]2[C@H](c3ccc(S(N)(=O)=O)cc3)C23CCCC3)c(OC)n1 (relative stereo)
13 | 160 | CC(C)CN1N=C2C=NC(c3ccccc3)=CN2C1CC(=O)O (stereo not drawn)
14 | 130 to 132 | COC(CCc1ccc(Cl)cc1Cl)(Cn1cncn1)C(C)(C)C1OCCCO1 (stereo not drawn)
15 | 120 to 122 | CC(C)c1cc(-c2ccccn2)c(-c2ccc(F)cc2)n1CCC=O
16 | 111 to 113 | O=C(Nc1cc(F)cc(F)c1)c1ccccn1
17 | 124 to 127 | Fc1ccc(-c2nnc(Cl)cc2Cl)cc1
18 | 174 to 176 | CC(=O)SC[C@H](NC(=O)C(C)C)C(=O)NCCSC(=O)c1ccccc1
19 | 151 to 152 | CCOC(=O)C(C)(C)Cc1c(SC(C)(C)C)c2cc(O)ccc2n1Cc1ccc(Cl)cc1
20 | 237 to 238 | O=[N+]([O-])c1ccc(C=Nc2c3c(nc4ccccc24)CCCC3)cc1
21 | 75 to 76 | CCOC(=O)c1ccccc1OC
22 | 169 | CN1CCC(Nc2nc3ccccc3n2Cc2cnccn2)CC1
23 | 109 | CCC1CC(=O)N(Cc2ccc(N)cc2)N=C1c1ccc(OC)c(OC2CCCC2)c1 (stereo not drawn)
24 | 135 to 136 | CCOC(=O)c1cc(=O)c2c(OCC(O)COc3ccc(OC)cc3)cccc2o1 (stereo not drawn)

Row | melting point [°C] | SMILES
25 | 90 to 95 | Nc1ccc([N+](=O)[O-])cc1I
26 | 172 to 173 | Cc1ccc(S(=O)(=O)NN=C2CCCC(=O)C2Cc2ccccc2)cc1 (stereo not drawn)
27 | 171 | CC1(C)Cc2cccc(Oc3ccc(NC(=O)NC(=O)c4c(F)cccc4F)cc3Cl)c2O1
28 | 270 | Nc1cc(F)ccc1C(=O)C1CCN(CCn2c(=O)[nH]c3ccccc3c2=O)CC1
29 | 97 to 98 | Cc1nc(-c2ccc3c(c2)CCCC3)c(Br)o1
30 | 86 to 88 | Cc1ncc(CCCOc2c(C)cc(-c3nnn(C)n3)cc2C)s1
31 | 57 to 61 | CCCCCCCCN=C1SC(=CC(=O)O)C(=O)N1CCCCCCCC
32 | 144 to 146 | COC(=O)c1cc(-c2ccc(S(C)(=O)=O)cc2)n(-c2ccc(F)cc2)c1
33 | 151 to 152 | N#Cc1ccc(C(=O)NC(=S)NC2CC2)cc1
34 | 264 to 268 | CC(C)NC(=O)c1ccc(-c2cnc3[nH]c(=O)n(CC4CCCCC4)c3n2)cc1
35 | 112 to 114 | CCCC1OC(C(=O)OC)CC2=C1C(=O)c1ccccc1C2=O (stereo not drawn)
36 | 187 to 190 | CN(C)CCCN(C)C(=O)C(Cc1ccccc1)NC(=O)c1cc2cc(Cl)ccc2[nH]1 (stereo not drawn)
37 | 98 to 110 | CCc1noc(C)c1-c1[nH]c2ccccc2c1C(=O)CCC(=O)O
38 | 135 to 137 | Cc1nccn1CCC(=O)NC(C)c1ccc(Cl)cc1 (stereo not drawn)
39 | 92 to 98 | COC(=O)c1ccc(OCCNC(=O)C2Cc3ccccc3N2S(=O)(=O)c2ccc(-c3cccc(C(F)(F)F)c3)cc2)c(C(F)(F)F)c1 (stereo not drawn)
40 | 135 to 136 | C=CCNC(=O)Nc1ccc([N+](=O)[O-])cc1O
41 | 253 | CCc1ccc2c(c1)C=Cc1cc(C)ccc1C2c1cn(Cc2ccc(C(=O)O)o2)c(=O)[nH]c1=O (stereo not drawn)
42 | 126 to 128 | CC(C)(C)NC(=O)c1ccc(Br)cc1
43 | 202 to 204 | Cc1cc(C)cc(NC(=O)[C@@H](C)NC(=O)c2cc([N+](=O)[O-])c(Cl)c([N+](=O)[O-])c2)c1
44 | 96 | CC(C)(C)NCC(O)COc1ccccc1CCCc1cccc2[nH]ccc12 (stereo not drawn)
45 | 85 to 94 | CC=CCn1c(C)c(C)c2cnnc(OCc3c(F)cccc3F)c21
46 | 169 to 172 | COc1c(N2CC3CCCC3(N)C2)c(F)cc2c(=O)c(C(=O)O)cn(C3CC3F)c12 (stereo not drawn)
47 | 99 to 100 | C[C@@H]1[C@H](c2ccccc2)OC(=O)N1C(=O)CCc1ccccc1
48 | 110 to 112 | CCC[C@H](C)C(=O)O[C@H]1CCC=C2C=C[C@H](C)[C@H](CC[C@@H]3C[C@@H](O)CC(=O)O3)[C@H]21

Row | melting point [°C] | SMILES
49 | 157 to 158 | Cc1ccnc(CSc2nc(C)cc(=O)[nH]2)c1
50 | 70 to 82 | CC(C)(CO)c1ccc(C#N)cc1
51 | 250 | NS(=O)(=O)c1ccccc1S(N)(=O)=O
52 | 75 to 77 | CSC(CC(=O)O)c1ccccc1 (stereo not drawn)
53 | 152 to 154 | N#Cc1c(N2CCCCC2)cc(-c2cccs2)c2c1-c1ccccc1C2
54 | 194 to 196 | N#CCNC(=O)C1(NC(=O)c2ccc(Cn3ccnc3)cc2)CCCCC1
55 | 180 to 182 | CCN1C(=O)C(C)(C)C(=O)N(C)c2cc(CN(CCn3ccc4oc(C)cc4c3=O)Cc3ccc4c(c3)OCO4)ccc21
56 | 121 | O=S(CCCCCCOc1ccc(C2=C(c3ccccc3)CCCc3cc(O)ccc32)cc1)CCCC(F)(F)C(F)(F)F (stereo not drawn)
57 | 95 to 96.5 | NCC1c2ccccc2C=Cc2ccccc21
58 | 73 to 76.5 | COC(=O)C(C)Oc1ccc(NC(=O)CCCCCOCc2ccccc2)cc1 (stereo not drawn)
59 | 151 to 153 | CCCCN1C(=O)CC(C2C(=O)N(CCCC)C(=O)C2c2cc(C(C)(C)C)c(O)c(C(C)(C)C)c2)C1=O (stereo not drawn)
60 | 176 to 178 | CCCCNC(=O)c1ccccc1CN1C(=O)C2(COc3cc4c(cc32)CCO4)c2ccccc21 (stereo not drawn)
61 | 108 to 111 | CCc1cn(C2CC(O)C(CCC(O)C(C)Oc3ccc(Cl)cc3Cl)O2)c(=O)[nH]c1=O (mixture of isomers)
62 | 44 to 45 | O=C(c1ccc(C2CCCCC2)cc1)c1ccccn1
63 | 151 to 152 | CC12CCC3c4cccc([N+](=O)[O-])c4CCC3C1CCC2O (stereo not drawn)
64 | 154 to 155 | CC(=O)N1CCc2cc(Br)cc(N)c21
65 | 82 to 83 | CCCCS(=O)c1nc[nH]n1 (stereo not drawn)
66 | 201 to 207 | Cn1nnnc1SCC1c2cc(O)c(O)cc2CCN1C(=O)OCC(Cl)(Cl)Cl (stereo not drawn)
67 | 184 to 186 | COc1cc2c(cc1OC)N(C(=O)c1ccc(-c3ccccc3C(F)(F)F)c(C)c1)Cc1ccc(C(=O)N(C)CC(O)CO)n1C2 (stereo not drawn)
68 | 76 to 78 | CNC(=S)N1CC=C(C(C)(C)C)CC1
69 | 187 to 191 | COc1cc(C)nc(NC(=O)NS(=O)(=O)c2ccccc2C2CC2(Cl)Cl)n1 (stereo not drawn)
70 | 80 to 81 | COCOc1ccc(Nc2ncccc2[N+](=O)[O-])cc1
71 | 175 to 177 | CCOc1cc(N)c(Cl)cc1C(=O)NC1CCN(CC2CCN(C(=O)CCOC)CC2)CC1
72 | 127 to 129 | N#Cc1c(Cl)cc(Cl)c(CCC(=O)O)c1Cl

Row | melting point [°C] | SMILES
73 | 128 to 132 | CNC(=S)C(CN1CCOCC1)(OC)c1ccccn1 (stereo not drawn)
74 | 237 to 240 | Nc1nc(-c2cc(Cl)ccc2Cl)nc(N2CCCCC2C(=O)O)n1 (stereo not drawn)
75 | 121 to 122 | c1csc(-c2ccc(-c3cccs3)c3nsnc23)c1
76 | 121 to 122 | Clc1ccc(CCC(Cn2ccnc2)Sc2ccccc2Cl)s1 (stereo not drawn)
77 | 102 to 104 | CN(C)CCNC(=O)C(=O)c1ccc(OCCOc2ccc3ccccc3c2)cc1
78 | 174 | O=C(Nc1ccc(-c2ccccc2)s1)C1CCCCC1
79 | 244 | CS(=O)(=O)Nc1cc2c(c(C(=O)O)c1)NCCC2
80 | 54.5 to 56.5 | CCOc1ccc2c(c1)C(C)=CC(C)(C)N2C(=O)OC
81 | 98 to 100 | CCN(Cc1cc(C(C)=O)ccc1NC(C)=O)C1CCCCC1
82 | 205 to 208 | Cn1c(=O)n(S(=O)(=O)c2ccc(Cl)cc2)c(=O)c2ccc(Cl)cc21
83 | 299 to 303 | CCCn1cc2c(C3C(=O)Nc4ccc(Br)cc43)nc(NCCN3CCOCC3)nc2n1 (stereo not drawn)
84 | 159 to 160 | CC(=O)NC[C@H]1CN(c2ccc(N3CCC(=CC#N)CC3)c(F)c2)C(=O)O1
85 | 171 | CC(C)(C)OC(=O)NCC(=O)Nc1ccc(Nc2cccc3c2C(=O)c2ccccc2C3=O)cc1
86 | 255 to 257 | CC(=Cc1ccc(C(=O)O)cc1)c1ccc2c(c1)SCCC2(C)C
87 | 144 to 145 | BrCc1ccc(-c2cnn(-c3ccc(CBr)cc3)n2)cc1
88 | 201 to 202 | CCOC(=O)c1nnc(NS(=O)(=O)c2ccc(NC(C)=O)cc2)s1
89 | 166 to 168 | CN1CCC(c2c[nH]c3ccc(-c4cccs4)cc23)C1 (stereo not drawn)
90 | 187 to 190 | O=C1OC(=O)c2c(Cl)ccc(Cl)c21
91 | 189 to 190 | N=C(NCCCOc1cccc2[nH]c3ccccc3c12)c1cccs1
92 | 136 to 138 | CC(CC(=O)c1ccc(Br)cc1)C(=O)N1CCCC1C(=O)O (stereo not drawn)
93 | 118 to 120 | C[C@@H]1CC[C@@H](C(C)(C)c2ccccc2)[C@@H](Oc2cn(C(c3ccccc3)c3ccccc3)c(=O)o2)C1

Row | SMILES | melting point [°C]
94 | CNC(=O)N1N=C(c2ccc([N+](=O)[O-])cc2)c2cc(Cl)c(Cl)cc2CC1C (stereo not drawn) | 221 to 223
95 | N#Cc1nn(-c2c(Cl)cc(C(F)(F)F)cc2Cl)cc1I | 83 to 84
96 | CC(=O)OC1CCC2C3CCC4CC(=O)CC(C)C4(C)C3CCC12C (stereo not drawn) | 179 to 180
97 | NCCc1ccc(-c2ccc(O)cc2)cc1 | > 350
98 | CCCCS(=O)(=O)c1ccc2nn(-c3cc(C(C)(C)CC(C)(C)C)cc(C(C)(C)c4ccccc4)c3O)nc2c1 | 118
